These results are taken from patent US20110123617A1, “CLIOQUINOL FOR THE TREATMENT OF HEMATOLOGICAL MALIGNANCIES” (priority 2007, published 2011).

The structures appear in SMILES notation.

Test [1] deals with chymotrypsin-like activity of the proteasome. Briefly: Proteasome activity in cell lysates (Suc-LLVY-AMC cleavage). It is filed as biochemical. Particulars: cell lysates from leukemia and myeloma cell lines. As to the method:
A) Proteasome activity of MDAY-D2 and JJN3 cellular extracts after two hours of treatment with clioquinol (CQ), CuCl2 (Cu), or an equimolar concentration of CQ and Cu. After treatment, the preferential chymotrypsin-like substrate Suc-LLVY-AMC was added and the rate of free AMC was measured over time with a florescent spectrophotometric plate reader (excitation=380 nm, emission=460 nm). B) Proteasome activity of intact MDAY-D2 and JJN3 cells after two hours of treatment with clioquinol (CQ), CuCl2 (Cu), or an equimolar concentration of CQ and Cu. After treatment, the preferential chymotrypsin-like substrate Suc-LLVY-AMC was added and the rate of free AMC was measured over time with a florescent spectrophotometric plate reader (excitation=380 nm, emission=460 nm). […] The chymotrypsin-like activity of the proteasome was measured by incubating equal amounts of protein with the preferential chymotrypsin-like substrate Suc-LLVY-AMC in assay buffer (50 mM Tris-HCl, pH 7.5, 150 mM NaCl) for two hours. After incubation, […] and the rate of free AMC was measured over time with a florescent spectrophotometric plate reader (excitation=380 nm, emission=460 nm). […] The chymotrypsin-like activity of the proteasome was measured by monitoring the rate of cleavage of the fluorescent substrate Suc-LLVY-AMC.

A further test deals with MY5 cells. Briefly: Apoptosis by Annexin V and PI staining and flow cytometry. The test is classed as cell-based. As to the method: (TM) (20 μM). Apoptosis was measured by Annexin V and PI staining and flow cytometry. Cell viability was assessed with the CellTiter96® Aqueous Non-Radioactive Assay kit according to manufactures' instructions (Promega). Apoptosis was measured by flow cytometry to detect cell surface Annexin V expression and propidium iodide (PI) uptake (Biovision, Mountain View, Calif., USA) as previously described (20)
For orientation: In flow cytometry, cells or beads pass a laser one at a time.

For the compound `Oc1c(I)cc(Cl)c2cccnc12` [clioquinol, 5-chloro-7-iodo-8-hydroxyquinoline], the “rate of Suc-LLVY-AMC cleavage” value in test [1] is given as “inhibited the rate of Suc-LLVY-AMC cleavage”. The clioquinol-induced cell death result is “enhanced the toxicity of clioquinol” in the test with MY5 cells (copper supplemented in the medium (CuCl2 20 μM)) and “abrogated clioquinol-induced cell death” in the test on MY5 cells (with copper chelator tetrathiomoylbdate (20 μM)). The “viability of MY5 cells” value in the test with MY5 cells (twenty-four hours) was “reduces the viability of MY5 cells”.
